Measurements: article PMC11775185, “Structure and function of a near fully-activated intermediate GPCR-Gαβγ complex” (Nature Communications, 2025)

Columns and labels:
Assay in all cases: GTPase-Glo luminescence, Lineweaver-Burk
[1] = test system: T1, Gαsβγ (A2AR-Gαsβγ complex); format: biochemical, Homo sapiens; settings: R291A receptor (S4), with cognate GAP, pH […], room temperature
T1 construct: gene GNAS; cited protocols may use bovine/rat subunits), with purified A2AR_316 V229C in LMNG/CHS; Adenosine receptor A2a
From the text: GTPase-Glo luminescence, Lineweaver-Burk on WT*-mediated Gαsβγ (A2AR-Gαsβγ complex) | we measured the initial rates and Michaelis constants of GTP hydrolysis

[2] = test system: T2, Gαsβγ alone; format: biochemical; settings: […] Gαsβγ without receptor, with cognate GAP, pH […], room temperature
T2 construct: gene GNAS; full-length Gαsβγ heterotrimer without receptor
From the text: GTPase-Glo luminescence, Lineweaver-Burk on Gαsβγ alone | Km values for S4 mediated Gαsβγ, in reference to Gαsβγ alone (negative control)

[3] = test system: T3, WT*-mediated Gαsβγ (A2AR-Gαsβγ complex); format: biochemical, Homo sapiens; settings: agonist-activated WT* receptor (S5), with cognate GAP, pH […], room temperature
T3 construct: gene GNAS; cited protocols may use bovine/rat subunits), with purified A2AR_316 V229C in LMNG/CHS; Adenosine receptor A2a
From the text: GTPase-Glo luminescence, Lineweaver-Burk on WT*-mediated Gαsβγ (A2AR-Gαsβγ complex) | and the S5 mediated Gαsβγ (positive control)

- Km [1]: 18 ± 1.87 µM
- Km [2]: 8.3 ± 0.61 µM
- Km [3]: 32.1 ± 1 µM
Structure (SMILES): Nc1nc2c(ncn2[C@@H]2O[C@H](COP(=O)(O)OP(=O)(O)OP(=O)(O)O)[C@@H](O)[C@H]2O)c(=O)[nH]1 [GTP]
